Assays:
Cryptocaryon irritans [1] = experiment: Examples 3 and 4: oral administration of single inhibitors and a combination against Cryptocaryon irritans on Pagrus major; type: in vivo; settings: 60 parasites per plot, P=<0.01
Excerpt: During the rearing period, 1.4 liters/min. of seawater was supplied. […] After exposure, seven fish each were moved into six 100-liter aquariums. During the rearing period, 1.4 liters/min. of seawater was supplied.

Cryptocaryon irritans [2] = experiment: Example 1: oral administration against parasitism of Cryptocaryon irritans on Pagrus major (1); settings: 50 mg trimethoprim/kg body weight/day orally for three days; three days after the exposure
[3] = 300 mg/kg fish body weight/day for three days
[4] = 60 mg/kg fish body weight/day for three days

## COc1cc(NS(=O)(=O)c2ccc(N)cc2)nc(OC)n1 [SDMX, sulfadimethoxine]
Cryptocaryon irritans [1]; [3]
  growth rate of parasites (body length as percentage of control plot), difference to control plot: statistically significant difference

## N=C(N)c1ccc(OCCCCCOc2ccc(C(=N)N)cc2)cc1.O=S(=O)(O)CCO.O=S(=O)(O)CCO [PMD, isethionic acid pentamidine salt]
Cryptocaryon irritans [1]; [4]
  growth rate of parasites (body length as percentage of control plot), difference to control plot: statistically significant difference

## Cc1ccnc(NS(=O)(=O)c2ccc(N)cc2)n1 [SMDN, sulfamerazine]
Cryptocaryon irritans [1]; [3]
  growth rate of parasites (body length as percentage of control plot), difference to control plot: statistically significant difference

## Cc1nnc(NS(=O)(=O)c2ccc(N)cc2)s1 [SMZ, sulfamethizole]
Cryptocaryon irritans [1]; [3]
  growth rate of parasites (body length as percentage of control plot), difference to control plot: statistically significant difference

## CN(Cc1cnc2nc(N)nc(N)c2n1)c1ccc(C(=O)N[C@@H](CCC(=O)O)C(=O)O)cc1 [MTX, methotrexate]
Cryptocaryon irritans [1]; [4]
  growth rate of parasites (body length as percentage of control plot), difference to control plot: statistically significant difference

## COc1cc(Cc2cnc(N)nc2N)cc(OC)c1OC [TMP, trimethoprim]
Cryptocaryon irritans [1]; [4]
  growth rate of parasites (body length as percentage of control plot), difference to control plot: statistically significant difference
Cryptocaryon irritans [2]
  number of parasites (left gills, FIG. 1) relative to control plot: tend to be large

## sulfisozole [SIZ]
Cryptocaryon irritans [1]; [3]
  growth rate of parasites (body length as percentage of control plot), difference to control plot: statistically significant difference

## COc1cc(NS(=O)(=O)c2ccc(N)cc2)ncn1 [SMMX, sulfamonomethoxine]
Cryptocaryon irritans [1]; [3]
  growth rate of parasites (body length as percentage of control plot), difference to control plot: statistically significant difference

## Cc1cc(NS(=O)(=O)c2ccc(N)cc2)nc(C)n1 [SID, sulfisomidine]
Cryptocaryon irritans [1]; [3]
  growth rate of parasites (body length as percentage of control plot), difference to control plot: statistically significant difference
